Twelve molecules from patent publication US11987648B2, “Cyclohexapeptides as selective somatostatin SST5 receptor agonists” (Heptares Therapeutics Limited, priority 2018, dated 2024) can be followed below.

*1 amine or outer side, *2 acyl side, *3 side chain or, on linkers, in order; H or OH if unused. Where a SMILES comes first, the peptide text is derived from it. Side-chain parts run from the residue outwards. [ ]: non-standard residue; d: D form. The star is where a group is joined. Ala(piperidin-4-yl) = O=C([C@H](CC1CCN([*:3])CC1)N[*:1])[*:2]; Ala(piperazin-1-yl) = N[C@@H](CN1CCNCC1)C(=O)O; X5 = CN([C@@H](CC1CCNCC1)C(=O)[*:2])[*:1]; Phe(4-Cl) = N[C@@H](Cc1ccc(Cl)cc1)C(=O)O; Morpholine(3S-CO) = O=C(O)[C@@H]1COCCN1; Ethylenediamine = C(CN[*:2])N[*:1]; d(hPhe) = N[C@H](CCc1ccccc1)C(=O)O; Hyp = O=C(O)[C@@H]1C[C@@H](O)CN1; hPhe = N[C@@H](CCc1ccccc1)C(=O)O; 3Pal = N[C@@H](Cc1cccnc1)C(=O)O; Cyclohexylmethyl = C1CCC(C*)CC1; Tic = O=C(O)[C@@H]1Cc2ccccc2CN1; Phg = N[C@H](C(=O)O)c1ccccc1; CO = O=C([*:1])[*:2]; Bn = c1ccc(C*)cc1 A value given as a limit tells only on which side of the number the result lay.

For one assay, the target named is SST5 (Homo sapiens, UniProt P35346). The experiment in a line: Hit Hunter cAMP XS+ assay, SST5 activation via Gi (reduction of forskolin-stimulated cAMP). Type of assay: cell-based. Conditions: for Emax: read-out: SST5 (EMax); for EC50: reduction of forskolin-stimulated cAMP, 4-parameter logistic fit, read-out: SST5 pEC50 (converted); for SST5/2 Selectivity: selectivity for SST5 over SST2. As to the method: (§1) A Hit Hunter® cAMP XS+ assay was used to monitor activation of the SST2 and SST5 via the Gi G protein. Cells were pre-stimulated with forskolin to elicit a cAMP response and the potency and efficacy of somatostatin agonists to reduce cAMP was measured. Briefly cells (10,000 cells/well) were incubated (37° C.; 30 min) with compound ([…]) in media (2:1 HBSS/11 mM Hepes: cAMP XS+Ab reagent) in the presence of EC80 forskolin ([…] and 15 μM SST5). Signal was detected through incubation with 20 μL cAMP XS+ED/CL lysis cocktail ([…]; RT) followed by incubation with […] cAMP XS+EA reagent (180 min; RT). Microplates were read with a PerkinElmer Envision™ instrument for chemiluminescent signal detection.

The target in another assay is SST2 (Homo sapiens, UniProt P30874). Put plainly: Hit Hunter cAMP XS+ assay, SST2 activation via Gi (reduction of forskolin-stimulated cAMP). Conditions: for Emax: read-out: SST2 (EMax); for EC50: reduction of forskolin-stimulated cAMP, 4-parameter logistic fit, read-out: SST2 pEC50 (converted). The assay is classed as cell-based. As to the method:
as §1

Sequence of SST5 (P35346 whole entry): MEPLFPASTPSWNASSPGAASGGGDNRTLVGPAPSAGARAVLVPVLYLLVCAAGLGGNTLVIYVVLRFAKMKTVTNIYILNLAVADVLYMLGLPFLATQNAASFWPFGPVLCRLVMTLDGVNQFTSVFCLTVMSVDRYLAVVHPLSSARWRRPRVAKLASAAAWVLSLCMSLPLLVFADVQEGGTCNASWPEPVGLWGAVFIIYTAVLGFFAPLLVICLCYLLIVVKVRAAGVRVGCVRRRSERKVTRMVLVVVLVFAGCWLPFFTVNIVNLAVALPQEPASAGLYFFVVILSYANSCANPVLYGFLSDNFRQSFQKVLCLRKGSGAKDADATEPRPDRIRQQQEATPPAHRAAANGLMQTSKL
Sequence of SST2 (P30874 whole entry): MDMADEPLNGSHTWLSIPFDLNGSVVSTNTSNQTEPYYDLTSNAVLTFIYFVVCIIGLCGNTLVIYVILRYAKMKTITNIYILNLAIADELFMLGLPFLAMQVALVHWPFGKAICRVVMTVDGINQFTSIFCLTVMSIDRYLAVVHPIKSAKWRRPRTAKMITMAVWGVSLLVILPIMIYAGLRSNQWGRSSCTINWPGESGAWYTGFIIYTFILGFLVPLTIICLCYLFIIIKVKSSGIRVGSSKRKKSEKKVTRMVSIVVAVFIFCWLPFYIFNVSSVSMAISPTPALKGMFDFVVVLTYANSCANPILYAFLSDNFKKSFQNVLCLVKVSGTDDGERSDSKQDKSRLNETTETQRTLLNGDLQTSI

The Emax is the maximal effect, on the per cent scale that the assay sets. For the molecule `NCCNC(=O)O[C@@H]1C[C@H]2C(=O)N[C@@H](c3ccccc3)C(=O)N[C@H](Cc3c[nH]c4ccccc34)C(=O)N[C@@H](CN3CCNCC3)C(=O)N[C@@H](Cc3ccc(OCC4CCCCC4)cc3)C(=O)N[C@@H](Cc3ccccc3)C(=O)N2C1` [Example 27] (cyclo(F[Hyp]([CO-Ethylenediamine])[Phg][dW][Ala(piperazin-1-yl)]Y(Cyclohexylmethyl))), at SST5, the Emax came to 99.4%, the EC50 was 2.51 nM and the “SST5/2 Selectivity” value is recorded as 159.6. For the same molecule, on SST2, the Emax was found to be 90.7% and the EC50 is 398 nM.
Consider `NCCNC(=O)O[C@@H]1C[C@H]2C(=O)N[C@@H](CCc3ccccc3)C(=O)N[C@H](Cc3c[nH]c4ccccc34)C(=O)N[C@@H](CC3CCNCC3)C(=O)N[C@@H](Cc3ccc(OCc4ccccc4)cc3)C(=O)N[C@@H](Cc3ccccc3)C(=O)N2C1` [Example 28] (cyclo(F[Hyp]([CO-Ethylenediamine])[hPhe][dW][Ala(piperidin-4-yl)]Y(Bn))), for which, on SST5, the Emax turned out to be 100%, the EC50 is 0.0794 nM and the “SST5/2 Selectivity” value is reported as 101.0. Besides, on SST2, the Emax is 99.6% and the EC50 was 7.94 nM.
Regarding `NCCNC(=O)O[C@@H]1C[C@H]2C(=O)N[C@@H](CCc3ccccc3)C(=O)N[C@@H](Cc3c[nH]c4ccccc34)C(=O)N[C@@H](CC3CCNCC3)C(=O)N[C@@H](Cc3ccc(OCc4ccccc4)cc3)C(=O)N[C@@H](Cc3ccccc3)C(=O)N2C1` [Example 29] (cyclo(F[Hyp]([CO-Ethylenediamine])[hPhe]W[Ala(piperidin-4-yl)]Y(Bn))), on SST5, the Emax was 100%, the EC50 is 1 nM and the “SST5/2 Selectivity” value amounted to 663.6. At SST2, the maximal response (Emax) is 89.6% and the EC50 was 794 nM.
As to `NCCNC(=O)O[C@@H]1C[C@H]2C(=O)N[C@H](CCc3ccccc3)C(=O)N[C@H](Cc3c[nH]c4ccccc34)C(=O)N[C@@H](CN3CCNCC3)C(=O)N[C@@H](Cc3ccc(OCc4ccccc4)cc3)C(=O)N[C@@H](Cc3ccc(Cl)cc3)C(=O)N2C1` [Example 30] (cyclo([Hyp]([CO-Ethylenediamine])[d(hPhe)][dW][Ala(piperazin-1-yl)]Y(Bn)[Phe(4-Cl)])), on SST5, the Emax turned out to be 101%, the EC50 is 1 nM and the “SST5/2 Selectivity” value is reported as 214.2. Besides, on SST2, the Emax was 100% and the EC50 was 251 nM.
As to `O=C1N[C@@H](Cc2ccc(OCc3ccccc3)cc2)C(=O)N2Cc3ccccc3C[C@H]2C(=O)N2CCOC[C@H]2C(=O)N[C@@H](CCc2ccccc2)C(=O)N[C@H](Cc2c[nH]c3ccccc23)C(=O)N[C@H]1CN1CCNCC1` [Example 31] (cyclo([Tic][Morpholine(3S-CO)][hPhe][dW][Ala(piperazin-1-yl)]Y(Bn))), at SST5, the Emax turned out to be 88.7%, the EC50 is 0.0631 nM and the “SST5/2 Selectivity” value was determined as 3441.5. For the same molecule, at SST2, the Emax is 99.7% and the EC50 was 200 nM.
As to `CN1C(=O)[C@@H](Cc2c[nH]c3ccccc23)NC(=O)[C@@H](CCc2ccccc2)NC(=O)[C@@H]2COCCN2C(=O)[C@@H]2Cc3ccccc3CN2C(=O)[C@H](Cc2ccc(OCc3ccccc3)cc2)NC(=O)[C@@H]1CC1CCNCC1` [Example 32] (cyclo([Tic][Morpholine(3S-CO)][d(hPhe)][dW][X5]Y(Bn))), on SST5, the Emax came out at 99.9%, the EC50 is 1.26 nM and the “SST5/2 Selectivity” value is given as 66.8. Further, at SST2, the Emax amounted to 98.8% and the EC50 is 100 nM.
Regarding `NCCNC(=O)O[C@@H]1C[C@H]2C(=O)N[C@H](CCc3ccccc3)C(=O)N[C@@H](Cc3c[nH]c4ccccc34)C(=O)N[C@@H](CN3CCNCC3)C(=O)N[C@@H](Cc3ccc(OCc4ccccc4)cc3)C(=O)N[C@@H](Cc3cccnc3)C(=O)N2C1` [Example 33] (cyclo([3Pal][Hyp]([CO-Ethylenediamine])[d(hPhe)]W[Ala(piperazin-1-yl)]Y(Bn))), on SST5, the Emax came to 107%, the EC50 was 39.8 nM and the “SST5/2 Selectivity” value is 279.1. Further, at SST2, the Emax came out at 13.4% and the EC50 was more than 10000 nM.
`NCCNC(=O)O[C@@H]1C[C@H]2C(=O)N[C@@H](CCc3ccccc3)C(=O)N[C@@H](Cc3c[nH]c4ccccc34)C(=O)N[C@@H](CN3CCNCC3)C(=O)N[C@@H](Cc3ccc(OCc4ccccc4)cc3)C(=O)N[C@@H](Cc3cccnc3)C(=O)N2C1` [Example 34] (cyclo([3Pal][Hyp]([CO-Ethylenediamine])[hPhe]W[Ala(piperazin-1-yl)]Y(Bn))): at SST5, the Emax was 102%, the EC50 was 1 nM and the “SST5/2 Selectivity” value came to 3271.8. In addition, on SST2, the Emax amounted to 49.2% and the EC50 is 3980 nM.
Consider `NCCNC(=O)O[C@@H]1C[C@H]2C(=O)N[C@H](CCc3ccccc3)C(=O)N[C@@H](Cc3c[nH]c4ccccc34)C(=O)N[C@@H](CN3CCNCC3)C(=O)N[C@@H](Cc3ccc(OCc4ccccc4)cc3)C(=O)N3Cc4ccccc4C[C@H]3C(=O)N2C1` [Example 35] (cyclo([Hyp]([CO-Ethylenediamine])[d(hPhe)]W[Ala(piperazin-1-yl)]Y(Bn)[Tic])), for which, at SST5, the Emax worked out at 107%, the EC50 is 1 nM and the “SST5/2 Selectivity” value is recorded as 10046.0. Also, on SST2, the Emax was determined as 27.8% and the EC50 is more than 10000 nM.
For `NCCNC(=O)O[C@@H]1C[C@H]2C(=O)N[C@@H](CCc3ccccc3)C(=O)N[C@@H](Cc3c[nH]c4ccccc34)C(=O)N[C@@H](CN3CCNCC3)C(=O)N[C@@H](Cc3ccc(OCc4ccccc4)cc3)C(=O)N3Cc4ccccc4C[C@H]3C(=O)N2C1` [Example 36] (cyclo([Hyp]([CO-Ethylenediamine])[hPhe]W[Ala(piperazin-1-yl)]Y(Bn)[Tic])), on SST5, the Emax is 102%, the EC50 is 1.26 nM and the “SST5/2 Selectivity” value is on record as 384.3. Also, at SST2, the Emax stood at 63.4% and the EC50 is 501 nM.
For `NCCNC(=O)O[C@@H]1C[C@H]2C(=O)N[C@@H](CCc3ccccc3)C(=O)N[C@H](Cc3c[nH]c4ccccc34)C(=O)N[C@@H](CN3CCNCC3)C(=O)N[C@@H](Cc3ccc(OCc4ccccc4)cc3)C(=O)N3CCC[C@H]3C(=O)N2C1` [Example 37] (cyclo([Hyp]([CO-Ethylenediamine])[hPhe][dW][Ala(piperazin-1-yl)]Y(Bn)P)) the same measures were 108%, 2 nM, 2927.5, 75.8% and 6310 nM.
For `NCCNC(=O)O[C@@H]1C[C@H]2C(=O)N[C@H](CCc3ccccc3)C(=O)N[C@H](Cc3c[nH]c4ccccc34)C(=O)N[C@@H](CC3CCNCC3)C(=O)N[C@@H](Cc3ccc(OCc4ccccc4)cc3)C(=O)N[C@@H](Cc3ccccc3)C(=O)N2C1` [Example 38] (cyclo(F[Hyp]([CO-Ethylenediamine])[d(hPhe)][dW][Ala(piperidin-4-yl)]Y(Bn))) the same measures were 103%, 12.6 nM, 171.5, 82.7% and 2510 nM.
